For 16 molecules, IC50 results are on record in US4895842A, “Phenylalanine derivative and proteinase inhibitor” (Shosuke Okamoto, priority 1985, dated 1990).

Molecules are shown by their SMILES. Where two headings read alike, the source gives them in different places. A value given as a limit tells only on which side of the number the result lay.

The target of test [1] is T1, human plasmin (Homo sapiens, UniProt P00747). As to the kind of experiment: Antiplasmin activity: inhibition of fibrin decomposition. Format: biochemical. To be noted: read-out: Plasmin Fibrin (I50). As for the experimental part:
(i) Determination of inhibition activity for fibrin decomposition
An inhibitor sample is dissolved in a 0.18M borate-physiological salt buffer solution (pH=7.4) to make the total volume to 600 μl. To this buffer solution, 200 μl of a 0.2% bovine fibrinogen, 100 μl of a 0.3 casein unit/ml human plasmin solution, and 100 μl of a 50 unit/ml bovine thrombin solution, all dissolved in the above-mentioned buffer, are added at a temperature of 37° C. in a constant temperature bath. Then, the dissolution time of the fibrin mass formed above is determined.

Test [2] concerns the target T2, bovine thrombin (Bos taurus, UniProt P00735). As to the kind of experiment: Antithrombin activity: inhibition of fibrin formation from fibrinogen. Format: biochemical. As for the experimental part:
(i) Determination of inhibition activity against fibrin formation
An inhibitor sample is dissolved in a 0.18M borate-physiological salt buffer solution (pH=7.4) to make the total volume to 500 μl. To this solution, 400 μl of a 0.2% bovine fibrinogen solution and 100 μl of a 4 unit/ml bovine thrombin solution are added at a temperature of 37° C. in a constant temperature bath. Thus, a coagulation time is determined. The inhibitor concentration I50 (μmol), at which the coagulation time obtained in the absence of the inhibitor is extended twice, is determined.

A further test addresses human urokinase (Homo sapiens, UniProt P00749). Nature of the test: biochemical. The note with it: S-2444 substrate, read-out: Urokinase S-2444 (I50). As for the experimental part:
Determination of inhibition activity for S-2444 decomposition
An inhibitor sample is dissolved in a 0.05M Tris-hydrochloric acid buffer solution (pH=8.8) to make the total volume to 400 μl. To this solution, 50 μl of a 1 mM S-2444 solution is added and the mixture is incubated at a temperature of 37° C. for 5 minutes in a constant temperature bath. Then, 50 μl of a 500 unit/ml human urokinase is added and the mixture is incubated at a temperature of 37° C. for 5 minutes. Thereafter, 50 μl of 50% acetic acid is added to terminate the reaction. The absorbance of the p-nitroaniline formed in the reaction mixture is measured at 405 nm. Thus, the concentration I50 (μmol) of the inhibitor sample, at which the absorbance is one half (i.e., 1/2) of that obtained in the absence of the inhibitor sample, is determined.

The target in test [3] is T2, bovine thrombin. Nature of the test: Antithrombin activity: inhibition of S-2238 decomposition. Format: biochemical. The method, then: (ii) Determination of inhibition activity for S-2238 decomposition
An inhibitor sample is dissolved in a 0.05M Tris-hydrochloric acid buffer solution (pH=8.3) to make a total volume of 400 μl. To this solution, 50 μl of a 0.2 mM S-2238 solution is added and the mixture is incubated at a temperature of 37° C. for 5 minutes in a constant temperature bath. Then, 50 μl of a 0.2 unit/ml bovine thrombin solution is added thereto and the absorbance, at 405 nm, of the p-nitroaniline formed per minute is determined at a temperature of 37° C. by using the so-called initial velocity method. Thus, the concentration I50 (μmol) of the inhibitor sample at which the absorbance is one half (i.e., 1/2) of that obtained in the absence of the inhibitor sample, is determined.

For a further test, the target named is human plasma kallikrein (Homo sapiens, UniProt P03952). Nature of the test: Anti-plasma kallikrein activity: inhibition of S-2302 decomposition. The format is biochemical. To be noted: S-2302 substrate, read-out: Plasma Kallikrein S-2302 (I50).
Sequence of human plasma kallikrein (P03952 391-638 limits assumed): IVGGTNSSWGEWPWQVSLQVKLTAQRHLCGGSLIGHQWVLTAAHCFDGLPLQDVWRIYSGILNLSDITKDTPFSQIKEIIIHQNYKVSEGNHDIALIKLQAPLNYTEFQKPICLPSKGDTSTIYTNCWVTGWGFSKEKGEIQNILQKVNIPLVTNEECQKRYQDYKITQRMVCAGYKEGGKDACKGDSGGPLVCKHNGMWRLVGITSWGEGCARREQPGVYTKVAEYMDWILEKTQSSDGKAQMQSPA
Sequence of human plasma kallikrein (P03952 20-390 partner limits assumed): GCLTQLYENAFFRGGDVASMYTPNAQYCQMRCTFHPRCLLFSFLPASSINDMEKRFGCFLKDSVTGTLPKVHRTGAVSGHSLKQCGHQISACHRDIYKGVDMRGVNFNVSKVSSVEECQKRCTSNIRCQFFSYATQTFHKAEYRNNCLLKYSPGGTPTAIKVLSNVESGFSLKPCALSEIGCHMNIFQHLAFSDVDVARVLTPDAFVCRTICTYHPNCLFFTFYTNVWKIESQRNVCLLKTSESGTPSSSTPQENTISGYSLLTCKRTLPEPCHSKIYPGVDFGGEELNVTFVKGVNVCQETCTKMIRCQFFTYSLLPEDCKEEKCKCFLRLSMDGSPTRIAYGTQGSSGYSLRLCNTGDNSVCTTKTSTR
Test [4] addresses T1, human plasmin. As to the kind of experiment: biochemical. To be noted: read-out: Plasmin S-2251 (I50). The method, then:
An inhibitor sample is dissolved in a 0.05M Tris-hydrochloric acid buffer solution (pH=7.4) to make the total volume of 400 μl. […] Then, 50 μl of a 0.2 casein unit/ml human plasmin is added and the mixture is incubated at a temperature of 37° C. for 4 minutes. Thereafter, the reaction is stopped by adding 50 μl of 50% acetic acid.
Thus, the concentration I50 (μmol) of the inhibitor sample, at which the absorbance is one half (i.e., 1/2) of that obtained in the absence of the inhibitor, is determined.

The target in a further test is T3, bovine trypsin (Bos taurus, UniProt P00760).
T3 sequence (P00760 24-246): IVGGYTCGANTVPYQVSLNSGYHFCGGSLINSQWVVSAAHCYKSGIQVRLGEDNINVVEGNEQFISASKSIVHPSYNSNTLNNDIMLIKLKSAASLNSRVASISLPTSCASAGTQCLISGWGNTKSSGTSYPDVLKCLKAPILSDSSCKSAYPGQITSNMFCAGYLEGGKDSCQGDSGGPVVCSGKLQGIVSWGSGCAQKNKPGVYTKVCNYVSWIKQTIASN
Nature of the test: Antitrypsin activity: inhibition of S-2238 decomposition. Format: biochemical. To be noted: S-2238 substrate, read-out: Trypsin S-2238 (I50).

Where [5] appears, read: Table 2, concentration at which fibrin dissolution time is extended twice, pH 7.4, 37° C.
The mark [6] stands for this setting: Table 2, S-2238 substrate, pH 8.3, 37° C., read-out: Thrombin S-2238 (I50).
The mark [7] stands for this setting: Table 4, comparative compounds of Table 3, coagulation time extended twice, read-out: Thrombin Fibrinogen (I50).
The mark [8] stands for this setting: Table 4, comparative compounds of Table 3, pH 8.8.
[9] abbreviates: Table 4, comparative compounds of Table 3, S-2238 substrate, pH 8.3, read-out: Thrombin S-2238 (I50).
The mark [10] stands for this setting: Table 4, comparative compounds of Table 3, pH 7.8.

T1 sequence (P00747 581-810 limits assumed): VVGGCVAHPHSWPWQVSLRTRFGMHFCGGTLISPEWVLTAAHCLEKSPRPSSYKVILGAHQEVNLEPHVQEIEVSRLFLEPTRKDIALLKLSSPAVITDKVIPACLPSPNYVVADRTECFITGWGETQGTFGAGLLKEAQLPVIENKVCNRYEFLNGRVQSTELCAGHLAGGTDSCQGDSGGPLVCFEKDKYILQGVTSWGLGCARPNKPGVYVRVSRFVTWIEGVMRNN
T1 sequence (P00747 97-580 partner limits assumed): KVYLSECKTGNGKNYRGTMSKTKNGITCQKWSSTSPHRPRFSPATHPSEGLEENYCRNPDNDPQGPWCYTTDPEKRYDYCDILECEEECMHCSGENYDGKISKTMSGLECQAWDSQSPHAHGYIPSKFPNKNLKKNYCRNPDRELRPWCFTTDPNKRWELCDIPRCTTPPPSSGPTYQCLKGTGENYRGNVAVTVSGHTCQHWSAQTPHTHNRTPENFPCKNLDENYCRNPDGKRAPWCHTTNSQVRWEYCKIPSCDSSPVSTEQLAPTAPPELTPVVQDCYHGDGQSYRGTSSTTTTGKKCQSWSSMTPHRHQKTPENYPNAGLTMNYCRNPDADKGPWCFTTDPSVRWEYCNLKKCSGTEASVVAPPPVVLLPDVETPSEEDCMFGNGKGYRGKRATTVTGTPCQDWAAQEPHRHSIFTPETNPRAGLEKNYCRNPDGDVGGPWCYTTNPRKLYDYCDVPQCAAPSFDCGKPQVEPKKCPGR
Method for bovine trypsin: Determination of inhibition activity against S-2238 decomposition
An inhibitor sample is dissolved in a 0.05M Tris-imidazole buffer solution (pH=8.1) and 125 μl of a 1 mM S-2238 solution is added to make the total volume to 1.20 ml. The mixture is incubated at a temperature of 37° C. for 5 minutes in a constant temperature bath. To this mixture, 0.05 ml of bovine trypsin is added and the absorbance, at 405 nm, of the p-nitroaniline formed per minute is determined at a temperature of 37° C. by using the so-called initial velocity method. Thus, the concentration I50 (μmol) of the inhibitor sample, at which the absorbance is one half (i.e., 1/2) of that obtained in the absence of the inhibitor sample, is determined.
Method for human plasma kallikrein: Determination of inhibition activity for S-2302 decomposition
An inhibitor sample is dissolved in a 0.05M Tris-hydrochloric acid buffer solution (pH=7.8) to make the total volume to 400 μl. To this solution, 50 μl of a 2 mM S-2302 solution is added and the mixture is incubated at a temperature of 37° C. for 5 minutes in a constant temperature bath. Then, 50 μl of a 0.12 unit/ml human plasma kallikrein is added and the mixture is incubated at a temperature of 37° C. for 5 minutes. Thereafter, 50 μl of 50% acetic acid is added to terminate the reaction. The absorbance of the p-nitroaniline formed in the reaction mixture is measured at 405 nm. Thus, the concentration I50 (μmol) of the inhibitor sample, at which the absorbance is one half (i.e., 1/2) of that obtained in the absence of the inhibitor sample, is determined.

As for `NC[C@H]1CC[C@H](C(=O)N[C@@H](Cc2ccccc2)C(=O)Nc2ccc(C(=O)c3ccccc3)cc2)CC1` [Compound No. 1], the IC50 on human plasmin [1] (setting [5]) is 40 µM; against bovine thrombin [2] it was greater than 50 µM; on human urokinase (Table 2, pH 8.8, 37° C.) it was 11 µM; on bovine thrombin [3] (setting [6]) it was greater than 100 µM; on human plasma kallikrein (Table 2, pH 7.8, 37° C.) it was 1.9 µM; on human plasmin [4], 27 µM. Also, the IC50 on bovine trypsin (Table 2, pH 8.1, 37° C.) was 0.3 µM.

In the case of `CC(=O)c1ccc(NC(=O)[C@H](Cc2ccccc2)NC(=O)[C@H]2CC[C@H](CN)CC2)cc1` [Compound No. 2, N-(trans-4-aminomethylcyclohexylcarbonyl)-L-phenylalanine 4-acetylanilide], the IC50 against bovine thrombin [2] is greater than 1000 µM; at bovine thrombin [3] (setting [6]) it was greater than 1000 µM; on bovine trypsin (Table 2, pH 8.1, 37° C.), 1.3 µM.

In the case of `CC(=O)c1ccc(NC(=O)[C@H](Cc2ccc(OCc3ccccc3)cc2)NC(=O)[C@H]2CC[C@H](CN)CC2)cc1` [Compound No. 3, N-(trans-4-aminomethylcyclohexylcarbonyl)-4-benzyloxy-L-phenylalanine 4-acetylanilide], the IC50 is 0.4 µM on human plasmin [1] (setting [5]); greater than 100 µM at bovine thrombin [2]; 31 µM at human urokinase (Table 2, pH 8.8, 37° C.); greater than 200 µM at bovine thrombin [3] (setting [6]); 0.63 µM on human plasma kallikrein (Table 2, pH 7.8, 37° C.); 1.8 µM on human plasmin [4]. Further, the IC50 on bovine trypsin (Table 2, pH 8.1, 37° C.) worked out at 0.77 µM.

Turning to `COc1ccc(C[C@H](NC(=O)[C@H]2CC[C@H](CN)CC2)C(=O)Nc2ccc(C(C)=O)cc2)cc1` [Compound No. 6, N-(trans-4-aminomethylcyclohexylcarbonyl)-4-methoxy-L-phenylalanine 4-acetylanilide], the IC50 on human plasmin [1] (setting [5]) was 4.6 µM; at bovine thrombin [2], greater than 500 µM; at human urokinase (Table 2, pH 8.8, 37° C.), 42 µM; at bovine thrombin [3] (setting [6]), 230 µM; on human plasma kallikrein (Table 2, pH 7.8, 37° C.), 2 µM; on human plasmin [4] it was 1.3 µM. Further, the IC50 at bovine trypsin (Table 2, pH 8.1, 37° C.) was determined as 1.1 µM.

Consider `CC(=O)c1ccc(NC(=O)[C@H](Cc2ccc(OCc3cccc(Cl)c3)cc2)NC(=O)[C@H]2CC[C@H](CN)CC2)cc1` [Compound No. 35, N-(trans-4-aminomethylcyclohexylcarbonyl)-4-(3-chlorobenzyloxy)-L-phenylalanine 4-acetylanilide methane sulfonate], for which the IC50 at human plasmin [1] (setting [5]) was 0.095 µM; at bovine thrombin [2] it was greater than 50 µM; against bovine thrombin [3], greater than 100 µM; on bovine trypsin (Table 2, pH 8.1, 37° C.), 1 µM.

For `NC[C@H]1CC[C@H](C(=O)O)CC1` [Table 3 Compound No. 1, tranexamic acid, reference compound], the IC50 is greater than 1000 µM at bovine thrombin [2] (setting [7]); greater than 1000 µM at human urokinase (setting [8]); greater than 1000 µM at bovine thrombin [3] (setting [9]); greater than 1000 µM at human plasma kallikrein (setting [10]); greater than 1000 µM at bovine trypsin (Table 4, comparative compounds of Table 3, pH 8.1).

Turning to `CC(=O)NC(Cc1ccc(OCc2ccccc2)cc1)C(=O)N(C)C` (stereo not shown) [Table 3 Compound No. 5, reference compound], the IC50 at human plasmin [1] (Table 4, comparative compounds of Table 3, fibrin dissolution time extended twice) was greater than 200 µM; on bovine thrombin [2] (setting [7]), greater than 200 µM; at human urokinase (setting [8]), greater than 200 µM; on bovine thrombin [3] (setting [9]), greater than 200 µM; at human plasma kallikrein (setting [10]), greater than 200 µM; at human plasmin [4] (Table 4, comparative compounds of Table 3, S-2251 substrate, pH 7.4, 37° C.) it was greater than 200 µM.

`CC(=O)c1ccc(NC(=O)[C@H](Cc2ccc(OC(C)C)cc2)NC(=O)[C@H]2CC[C@H](CN)CC2)cc1` [compound 14]: the IC50 at human plasmin [1] (setting [5]) was 4.4 µM; at bovine thrombin [2] it was greater than 500 µM; at human urokinase (Table 2, pH 8.8, 37° C.), 80 µM; at bovine thrombin [3] (setting [6]), greater than 400 µM; at human plasma kallikrein (Table 2, pH 7.8, 37° C.), 2.1 µM; at human plasmin [4], 168 µM.

As for `CC(=O)c1ccc(NC(=O)[C@H](Cc2ccc(OCc3c(Cl)cccc3Cl)cc2)NC(=O)[C@H]2CC[C@H](CN)CC2)cc1` [compound 20], the IC50 at human plasmin [1] (setting [5]) was 0.31 µM; on bovine thrombin [2], greater than 25 µM; at human urokinase (Table 2, pH 8.8, 37° C.), 120 µM; at bovine thrombin [3] (setting [6]), greater than 50 µM; at human plasma kallikrein (Table 2, pH 7.8, 37° C.), 0.16 µM; at human plasmin [4], 1.4 µM.

Take `Cc1ccc(NC(=O)[C@H](Cc2ccc(OCc3ccccc3)cc2)NC(=O)[C@H]2CC[C@H](CN)CC2)cc1` [compound 26]: the IC50 on human plasmin [1] (setting [5]) was 1.1 µM; against bovine thrombin [2], greater than 100 µM; at human urokinase (Table 2, pH 8.8, 37° C.), 560 µM; at bovine thrombin [3] (setting [6]) it was greater than 100 µM; at human plasma kallikrein (Table 2, pH 7.8, 37° C.) it was 2.1 µM; at human plasmin [4], 6.9 µM.

As for `NC[C@H]1CC[C@H](C(=O)N[C@@H](Cc2ccc(OCc3ccccc3)cc2)C(=O)Nc2ccncc2)CC1` [compound 40], the IC50 at human plasmin [1] (setting [5]) was 0.68 µM; on bovine thrombin [2], greater than 500 µM; at bovine thrombin [3] (setting [6]), greater than 1000 µM; at bovine trypsin (Table 2, pH 8.1, 37° C.) it was 1.8 µM.

With `NCC1CCC(C(=O)NC(Cc2ccc(OCc3ccccc3)cc2)C(=O)NCc2ccc(F)cc2)CC1` (stereo not shown) [compound 111], the IC50 is 1.1 µM at human plasmin [1] (setting [5]); greater than 300 µM on human urokinase (Table 2, pH 8.8, 37° C.); greater than 50 µM on bovine thrombin [3] (setting [6]); greater than 50 µM on human plasma kallikrein (Table 2, pH 7.8, 37° C.); 5.2 µM at human plasmin [4]; 5.8 µM on bovine trypsin (Table 2, pH 8.1, 37° C.).

Take `NCc1ccc(C(=O)N[C@@H](Cc2ccc(OCc3ccccc3)cc2)C(=O)Nc2ccc(C(=O)O)cc2)cc1` [compound 139]: the IC50 on human plasmin [1] (setting [5]) was 190 µM; against bovine thrombin [2], greater than 1000 µM; on human urokinase (Table 2, pH 8.8, 37° C.), greater than 1000 µM; at bovine thrombin [3] (setting [6]) it was greater than 1000 µM; at human plasma kallikrein (Table 2, pH 7.8, 37° C.), greater than 1000 µM; at human plasmin [4] it was greater than 1000 µM.

Regarding `COc1ccc(NC(=O)[C@H](Cc2ccc(OCc3ccccc3)cc2)NC(=O)c2ccc(CN)cc2)cn1` [compound 140], the IC50 at human plasmin [1] (setting [5]) is 2.5 µM; against bovine thrombin [2], greater than 200 µM; at human urokinase (Table 2, pH 8.8, 37° C.), greater than 100 µM; at bovine thrombin [3], greater than 200 µM; at human plasma kallikrein (Table 2, pH 7.8, 37° C.), 18 µM; at human plasmin [4], 8.8 µM.

As to `CC(=O)c1ccc(NC(=O)[C@H](Cc2ccc(OC(=O)OCc3ccccc3Cl)cc2)NC(=O)[C@H]2CC[C@H](CN)CC2)cc1` [compound 145], the IC50 was 0.075 µM on human plasmin [1] (setting [5]); greater than 50 µM against bovine thrombin [2]; 31 µM on human urokinase (Table 2, pH 8.8, 37° C.); 86 µM at bovine thrombin [3] (setting [6]); 0.75 µM on human plasma kallikrein (Table 2, pH 7.8, 37° C.); 0.56 µM on human plasmin [4].

Consider `CC(=O)c1ccc(NC(=O)[C@H](Cc2ccc(OC(=O)OCc3ccccc3)cc2)NC(=O)[C@H]2CC[C@H](CN)CC2)cc1` [compound 146], for which the IC50 on human plasmin [1] (setting [5]) was 0.29 µM; against bovine thrombin [2], greater than 100 µM; on human urokinase (Table 2, pH 8.8, 37° C.) it was 45 µM; on bovine thrombin [3] (setting [6]), greater than 100 µM; on human plasma kallikrein (Table 2, pH 7.8, 37° C.), 0.58 µM; on human plasmin [4], 0.64 µM.
